This experiment deals with T1, TASK-1 (Homo sapiens, UniProt O14649).
T1 construct: expressed in transfected cells; host or cells: HEK293
Nature of the experiment: Tl+-flux assay in HEK-293 cells, TASK-1. It is filed as cell-based. Conditions: HEK293; 10 µM test compound; relative to control bepridil; read-out: Percent Inhibition ± SEM, TASK-1. From the text:
Having executed our plan to prepare analogs across the identified regions of the chemotype (Figure 2), we identified two analogs for further profiling and evaluation. […] Desiring to add a second compound with some measure of structural differences, we also chose another submicromolar SLACK inhibitor 66 (VU0936154). Whereas 40 contains an ether linker and a halogenated phenyl group in the eastern region, […] contains an N-methyl linker and a phenyl group with a more polar cyano substituent. We first screened these analogs at 10 µM versus our in-house panel of ion channel targets using Tl^+-flux assays in HEK-293 cells expressing the human target of interest. […] Included in this set are Slo family members SLICK and two isoforms of Maxi-K, as well as several different K^+, Na^+, and Ca^2+ channels (Table 6). […] Of note was the excellent selectivity versus the broader panel of targets for both compounds, including versus the hERG channel.
Stably transfected monoclonal HEK293 cell lines expressing SLICK, Maxi-K α1/β3, Maxi-K α1/β4, CaV3.2, GIRK 1/2, KV2.1, KV7.2, NaV1.7, and TASK-1 were generated as previously described. […]
The Tl^+ flux assays were conducted as previously described, with modifications optimized for individual cell lines as described below. […] Cell plates were then loaded onto a Panoptic kinetic imaging plate reader (WaveFront Biosciences, Franklin, TN, USA). […]

In article PMC11643494, “Structure–Activity Relationship Studies in a Series of 2-Aryloxy-N-(pyrimidin-5-yl)acetamide Inhibitors of SLACK Potassium Channels” (Molecules, 2024) one finds inhibition data, which are given here for 2 molecules.

As usually defined, the inhibition is the relative decrease from the control value, in per cent.

T1 sequence (O14649 whole entry): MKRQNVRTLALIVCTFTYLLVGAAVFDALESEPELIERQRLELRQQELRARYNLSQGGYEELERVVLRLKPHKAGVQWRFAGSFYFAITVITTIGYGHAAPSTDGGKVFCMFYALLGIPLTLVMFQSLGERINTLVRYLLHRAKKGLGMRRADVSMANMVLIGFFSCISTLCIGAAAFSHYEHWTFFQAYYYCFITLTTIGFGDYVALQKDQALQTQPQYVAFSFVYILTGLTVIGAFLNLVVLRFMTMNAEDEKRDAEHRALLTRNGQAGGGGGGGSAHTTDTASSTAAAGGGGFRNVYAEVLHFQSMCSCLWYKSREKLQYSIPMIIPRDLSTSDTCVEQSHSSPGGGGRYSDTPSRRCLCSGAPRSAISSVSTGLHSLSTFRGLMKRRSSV

`CC(C)(Oc1ccc(Cl)cc1)C(=O)Nc1cnc(Oc2c(F)cccc2F)nc1` [Analog 40]: the inhibition at 10 µM turned out to be 24 ± 3.7%.
The value for `CN(c1ccc(C#N)cc1)c1ncc(NC(=O)C(C)(C)Oc2ccc(Cl)cc2)cn1` [Analog 66] was 18 ± 2%.
